# Test results taken from patent publication US20250204555A1, “FEED AND METHODS FOR CONTROLLING INTESTINAL TRACT PARASITIC WORM INFECTIONS IN MAMMALS” (In the Bowl Animal Health, priority 2022, published 2025).
# Experiments:
# Type in all cases: in vivo
# [1] = system: Toxocara canis; test: Efficacy of fenbendazole per os to dogs against Toxocara canis infections (fecal egg counts); conditions: oral liquid formulation, 0.5, 1.0 or 1.5 mg/kg daily Days 0-52 (at least treatment groups 2-4), ~250 T. canis eggs on Day 0, expected by the end of the study period
# Excerpt: Efficacy of Fenbendazole Administered per os, i.e. by Mouth, to Dogs for the Treatment and Control of Toxocara canis Infections. Methods: A pool of dogs are to be preliminarily examined to ensure suitability for the example. Dogs must be within normal weight ranges for breed, in good health with no known history of serious disease and neither pregnant nor lactating. Between Day-6 and Day-3, a fecal examination may be performed to confirm the absence of pre-existing infection by any nematode species. Dogs exposed to an anthelmintic within 30 days prior to Day-7 are to be excluded. 20 eligible dogs are to be weighed on Day-2 or Day-1 and randomly assigned to 1 of 5 groups by weight (1 control group and 4 treatment groups). Dogs are to be housed indoors to help prevent naturally occurring parasitic worm infections. Dogs may be pair housed, if compatible, or individually housed until allocation to treatment groups on Day 0. Thereafter, the dogs are to be housed individually. Dogs are to be fed a standard commercially available dog food at the recommended rates and should be allowed access to potable water ad libitum. Each dog in a treatment group (test groups 2-5) is to receive by mouth a liquid formulation of fenbendazole. The dosage is to be administered to the dogs on each of days 0-52 according to test groups, see TABLE 5. [table] […]
# [2] = system: Toxocara canis; test: Efficacy of monepantel per os to dogs against Toxocara canis (fecal egg counts); conditions: oral liquid formulation, 0.125, 0.25 or 0.5 mg/kg daily Days 0-52, ~250 T. canis eggs on Day 0, all treatment groups, expected by the end of the study period
# Excerpt: Efficacy of Monepantel Administered per os, i.e. by Mouth, to Dogs for the Treatment and Control of Toxocara canis.
# Methods: A pool of dogs are to be preliminarily examined to ensure suitability for the example. Dogs must be within normal weight ranges for breed, in good health with no known history of serious disease and neither pregnant nor lactating. On Day-6, a fecal examination may be performed to confirm the absence of pre-existing infection by any nematode species. Dogs exposed to an anthelmintic within 30 days prior to Day-7 are to be excluded.
# 16 eligible dogs are to be weighed on Day-1 and randomly assigned to 1 of 4 groups by weight (1 control group and 3 treatment groups).
# Dogs are to be housed indoors to help prevent naturally occurring parasitic worm infections. Dogs may be pair housed, if compatible, or individually housed until allocation to treatment groups on Day 0. Thereafter, the dogs are to be housed individually. Dogs are to be fed a standard commercially available dog food at the recommended rates and should be allowed access to potable water ad libitum.
# Each dog in a treatment group (test groups 2-4) is to receive by mouth a liquid formulation of monepantel. The dosage is to be administered to the dogs on each of days 0-52 according to test groups, see TABLE 4.
# Dogs in the control group are not to receive any anthelmintics or any other worm control treatment. […]
# [3] = system: Ancylostoma caninum; test: Efficacy of monepantel per os to dogs against Ancylostoma caninum (fecal egg counts); conditions: oral liquid formulation, 0.25 or 0.5 mg/kg daily Days 0-22, ~300 A. caninum larvae on Day 0, expected within approximately 2 weeks
# Excerpt: Efficacy of Monepantel Administered per os, i.e. by Mouth, to Dogs for the Treatment and Control of Ancylostoma caninum. Methods: A pool of 12 dogs are to be preliminarily examined to ensure suitability for the example. Dogs must be within normal weight ranges for breed, in good health with no known history of serious disease and neither pregnant nor lactating. Between Day-7 and Day-3, a fecal examination may be performed to confirm the absence of pre-existing infection by any nematode species. Dogs exposed to an anthelmintic within 30 days prior to Day-7 are to be excluded. Dogs are to be weighed on Day-2 and randomly assigned to 1 of 3 groups by weight (1 control group and 2 treatment groups). Dogs may be pair housed, if compatible, or individually housed until allocation to treatment groups on Day 0. Thereafter, the dogs are to be housed individually. Dogs are to be fed a standard commercially available dog food at the recommended rates and should be allowed access to potable water ad libitum. Each dog in a treatment group (test groups 2-3) is to receive by mouth a liquid formulation of monepantel. The dosage is to be administered to the dogs on each of days 0-22 according to test groups, see TABLE 3. [table] Dogs in the control group are not to receive any anthelmintics or any other worm control treatment. Dogs are to be fasted overnight. […]
Compound,efficacy (fecal egg count reduction) [1],efficacy (fecal egg count reduction) [2],Percent reduction in fecal egg counts [3]
"COC(=O)Nc1nc2ccc(Sc3ccccc3)cc2[nH]1 [Fenbendazole, methyl N-(6-phenylsulfanyl-1H-benzimidazol-2-yl) carbamate]",100%,–,–
"C[C@](C#N)(COc1cc(C#N)ccc1C(F)(F)F)NC(=O)c1ccc(SC(F)(F)F)cc1 [Monepantel, N-[(2S)-2-cyano-1-[5-cyano-2-(trifluoromethyl)phenoxy]propan-2-yl]-4-(trifluoromethylsulfanyl)benzamide]",–,100%,100%
